Assay results reported in the supplement of paper PMC10307832.

Key:
Assay in all cases: relative viability (nuclei count vs DMSO), 5 days (fraction); higher = more cells survive
ABC-1 = test system: ABC-1
Summary of the method: (§1)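 Cells from lung cancer lines were seeded into 1536-well plates and, one day later, dosed by pin tool. Treatments were either a single drug or a fixed dose of an anchor drug with five library-drug doses (not always all listed) in √10 steps. After 5 days, nuclei were stained in a one-step fixation (final 0.05% Triton X-100, 1% formaldehyde, 1 ug/ml Hoechst) and counted on 4× images, and relative viability is the treated-to-vehicle nuclei ratio, as the median of duplicate plates.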

CAL-12T = test system: CAL-12T
Summary of the method: as §1

COR-L 105 = test system: COR-L 105
Summary of the method: as §1

ChaGo-K-1 = test system: ChaGo-K-1
Summary of the method: as §1

EMC-BAC-2 = test system: EMC-BAC-2
Summary of the method: as §1

EPLC-272H = test system: EPLC-272H
Summary of the method: as §1

HCC-15 = test system: HCC-15
Summary of the method: as §1

HOP-62 = test system: HOP-62
Summary of the method: as §1

LXF-289 = test system: LXF-289
Summary of the method: as §1

NCI-H1666 = test system: NCI-H1666
Summary of the method: as §1

NCI-H1755 = test system: NCI-H1755
Summary of the method: as §1

NCI-H1915 = test system: NCI-H1915
Summary of the method: as §1

NCI-H1975 = test system: NCI-H1975
Summary of the method: as §1

NCI-H1993 = test system: NCI-H1993
Summary of the method: as §1

NCI-H2023 = test system: NCI-H2023
Summary of the method: as §1

NCI-H2085 = test system: NCI-H2085
Summary of the method: as §1

NCI-H2126 = test system: NCI-H2126
Summary of the method: as §1

NCI-H3122 = test system: NCI-H3122
Summary of the method: as §1

NCI-H322M = test system: NCI-H322M
Summary of the method: as §1

NCI-H358 = test system: NCI-H358
Summary of the method: as §1

NCI-H441 = test system: NCI-H441
Summary of the method: as §1

UMC-11 = test system: UMC-11
Summary of the method: as §1

For `NC(=O)Nc1cc(-c2cccc(F)c2)sc1C(=O)N[C@H]1CCCNC1` [AZD7762] + CCNC(=O)c1noc(-c2cc(C(C)C)c(O)cc2O)c1-c1ccc(CN2CCOCC2)cc1 [Luminespib] (partner 0.01 µM), the relative viability (ABC-1; first compound 0.01 µM) was 0.545, the relative viability (ABC-1; first compound 0.03162 µM) was 0.787 and the relative viability (ABC-1; first compound 0.1 µM) was 0.361. For the same molecule, the relative viability (ABC-1; first compound 0.3162 µM) was 0.374, the relative viability (ABC-1; first compound 1 µM) was 0.305 and the relative viability (CAL-12T; first compound 0.01 µM) was 0.331. The relative viability (CAL-12T; first compound 0.03162 µM) was 0.397, the relative viability (CAL-12T; first compound 0.1 µM) was 0.17 and the relative viability (CAL-12T; first compound 0.3162 µM) was 0.147. It also gave a relative viability (CAL-12T; first compound 1 µM) of 0.223, a relative viability (COR-L 105; first compound 0.01 µM) of 0.743 and a relative viability (COR-L 105; first compound 0.03162 µM) of 0.585. It also gave a relative viability (COR-L 105; first compound 0.1 µM) of 0.696, a relative viability (COR-L 105; first compound 0.3162 µM) of 0.648 and a relative viability (COR-L 105; first compound 1 µM) of 0.401. For the same molecule, the relative viability (ChaGo-K-1; first compound 0.01 µM) was 0.601, the relative viability (ChaGo-K-1; first compound 0.03162 µM) was 0.578 and the relative viability (ChaGo-K-1; first compound 0.1 µM) was 0.692. It also gave a relative viability (ChaGo-K-1; first compound 0.3162 µM) of 0.513, a relative viability (ChaGo-K-1; first compound 1 µM) of 0.354 and a relative viability (EMC-BAC-2; first compound 0.01 µM) of 1.23. It also gave a relative viability (EMC-BAC-2; first compound 0.03162 µM) of 1.16, a relative viability (EMC-BAC-2; first compound 0.1 µM) of 1.19 and a relative viability (EMC-BAC-2; first compound 0.3162 µM) of 1.23. For the same molecule, the relative viability (EMC-BAC-2; first compound 1 µM) was 1.04, the relative viability (EPLC-272H; first compound 0.01 µM) was 0.55 and the relative viability (EPLC-272H; first compound 0.03162 µM) was 0.303. It also gave a relative viability (EPLC-272H; first compound 0.1 µM) of 0.319, a relative viability (EPLC-272H; first compound 0.3162 µM) of 0.459 and a relative viability (EPLC-272H; first compound 1 µM) of 0.143. It also gave a relative viability (HCC-15; first compound 0.01 µM) of 0.309, a relative viability (HCC-15; first compound 0.03162 µM) of 0.304 and a relative viability (HCC-15; first compound 0.1 µM) of 0.234. It also gave a relative viability (HCC-15; first compound 0.3162 µM) of 0.163, a relative viability (HCC-15; first compound 1 µM) of 0.315 and a relative viability (HOP-62; first compound 0.01 µM) of 0.983. It also gave a relative viability (HOP-62; first compound 0.03162 µM) of 0.931, a relative viability (HOP-62; first compound 0.1 µM) of 0.606 and a relative viability (HOP-62; first compound 0.3162 µM) of 0.902. For the same molecule, the relative viability (HOP-62; first compound 1 µM) was 0.65, the relative viability (LXF-289; first compound 0.01 µM) was 0.673 and the relative viability (LXF-289; first compound 0.03162 µM) was 0.601. For the same molecule, the relative viability (LXF-289; first compound 0.1 µM) was 0.753, the relative viability (LXF-289; first compound 0.3162 µM) was 0.724 and the relative viability (LXF-289; first compound 1 µM) was 0.456. The relative viability (NCI-H1666; first compound 0.01 µM) was 1.11, the relative viability (NCI-H1666; first compound 0.03162 µM) was 1.07 and the relative viability (NCI-H1666; first compound 0.1 µM) was 1.18. It also gave a relative viability (NCI-H1666; first compound 0.3162 µM) of 1.03, a relative viability (NCI-H1666; first compound 1 µM) of 0.97 and a relative viability (NCI-H1755; first compound 0.01 µM) of 0.498. It also gave a relative viability (NCI-H1755; first compound 0.03162 µM) of 0.344, a relative viability (NCI-H1755; first compound 0.1 µM) of 0.244 and a relative viability (NCI-H1755; first compound 0.3162 µM) of 0.225. For the same molecule, the relative viability (NCI-H1755; first compound 1 µM) was 0.275, the relative viability (NCI-H1915; first compound 0.01 µM) was 0.828 and the relative viability (NCI-H1915; first compound 0.03162 µM) was 0.829. The relative viability (NCI-H1915; first compound 0.1 µM) was 0.743, the relative viability (NCI-H1915; first compound 0.3162 µM) was 0.555 and the relative viability (NCI-H1915; first compound 1 µM) was 0.434. The relative viability (NCI-H1975; first compound 0.01 µM) was 0.21, the relative viability (NCI-H1975; first compound 0.03162 µM) was 0.201 and the relative viability (NCI-H1975; first compound 0.1 µM) was 0.0969. The relative viability (NCI-H1975; first compound 0.3162 µM) was 0.173, the relative viability (NCI-H1975; first compound 1 µM) was 0.127 and the relative viability (NCI-H1993; first compound 0.01 µM) was 1.04. The relative viability (NCI-H1993; first compound 0.03162 µM) was 0.948, the relative viability (NCI-H1993; first compound 0.1 µM) was 0.81 and the relative viability (NCI-H1993; first compound 0.3162 µM) was 0.971. The relative viability (NCI-H1993; first compound 1 µM) was 0.678, the relative viability (NCI-H2023; first compound 0.01 µM) was 0.824 and the relative viability (NCI-H2023; first compound 0.03162 µM) was 0.498. For the same molecule, the relative viability (NCI-H2023; first compound 0.1 µM) was 0.228, the relative viability (NCI-H2023; first compound 0.3162 µM) was 0.141 and the relative viability (NCI-H2023; first compound 1 µM) was 0.114. It also gave a relative viability (NCI-H2085; first compound 0.01 µM) of 0.47, a relative viability (NCI-H2085; first compound 0.03162 µM) of 0.468 and a relative viability (NCI-H2085; first compound 0.1 µM) of 0.475. The relative viability (NCI-H2085; first compound 0.3162 µM) was 0.459, the relative viability (NCI-H2085; first compound 1 µM) was 0.374 and the relative viability (NCI-H2126; first compound 0.01 µM) was 0.922. For the same molecule, the relative viability (NCI-H2126; first compound 0.03162 µM) was 0.914, the relative viability (NCI-H2126; first compound 0.1 µM) was 0.833 and the relative viability (NCI-H2126; first compound 0.3162 µM) was 0.802. It also gave a relative viability (NCI-H2126; first compound 1 µM) of 0.456, a relative viability (NCI-H3122; first compound 0.01 µM) of 0.0859 and a relative viability (NCI-H3122; first compound 0.03162 µM) of 0.0843. The relative viability (NCI-H3122; first compound 0.1 µM) was 0.109, the relative viability (NCI-H3122; first compound 0.3162 µM) was 0.0927 and the relative viability (NCI-H3122; first compound 1 µM) was 0.0813. For the same molecule, the relative viability (NCI-H322M; first compound 0.01 µM) was 0.851, the relative viability (NCI-H322M; first compound 0.03162 µM) was 0.827 and the relative viability (NCI-H322M; first compound 0.1 µM) was 0.357. It also gave a relative viability (NCI-H322M; first compound 0.3162 µM) of 0.248, a relative viability (NCI-H322M; first compound 1 µM) of 0.245 and a relative viability (NCI-H358; first compound 0.01 µM) of 0.275. It also gave a relative viability (NCI-H358; first compound 0.03162 µM) of 0.292, a relative viability (NCI-H358; first compound 0.1 µM) of 0.307 and a relative viability (NCI-H358; first compound 0.3162 µM) of 0.545. It also gave a relative viability (NCI-H358; first compound 1 µM) of 0.142, a relative viability (NCI-H441; first compound 0.01 µM) of 0.402 and a relative viability (NCI-H441; first compound 0.03162 µM) of 0.489. It also gave a relative viability (NCI-H441; first compound 0.1 µM) of 0.285, a relative viability (NCI-H441; first compound 0.3162 µM) of 0.436 and a relative viability (NCI-H441; first compound 1 µM) of 0.212. For the same molecule, the relative viability (UMC-11; first compound 0.01 µM) was 1.14, the relative viability (UMC-11; first compound 0.03162 µM) was 0.999 and the relative viability (UMC-11; first compound 0.1 µM) was 1.09. For the same molecule, the relative viability (UMC-11; first compound 0.3162 µM) was 0.593 and the relative viability (UMC-11; first compound 1 µM) was 0.384.
